What is called inhibition is the change of the read-out against control, counted positive when it falls.

The results in this text go back to US8765773B2, “Substituted hydroxamic acids and uses thereof” (Millennium Pharmaceuticals, Inc., priority 2010, dated 2014).

The target of the first experiment is T1, purified human HDAC6 (Homo sapiens, UniProt Q9UBN7).
T1 construct: purchased BPS Bioscience 5006
T1 sequence (Q9UBN7 1-1215): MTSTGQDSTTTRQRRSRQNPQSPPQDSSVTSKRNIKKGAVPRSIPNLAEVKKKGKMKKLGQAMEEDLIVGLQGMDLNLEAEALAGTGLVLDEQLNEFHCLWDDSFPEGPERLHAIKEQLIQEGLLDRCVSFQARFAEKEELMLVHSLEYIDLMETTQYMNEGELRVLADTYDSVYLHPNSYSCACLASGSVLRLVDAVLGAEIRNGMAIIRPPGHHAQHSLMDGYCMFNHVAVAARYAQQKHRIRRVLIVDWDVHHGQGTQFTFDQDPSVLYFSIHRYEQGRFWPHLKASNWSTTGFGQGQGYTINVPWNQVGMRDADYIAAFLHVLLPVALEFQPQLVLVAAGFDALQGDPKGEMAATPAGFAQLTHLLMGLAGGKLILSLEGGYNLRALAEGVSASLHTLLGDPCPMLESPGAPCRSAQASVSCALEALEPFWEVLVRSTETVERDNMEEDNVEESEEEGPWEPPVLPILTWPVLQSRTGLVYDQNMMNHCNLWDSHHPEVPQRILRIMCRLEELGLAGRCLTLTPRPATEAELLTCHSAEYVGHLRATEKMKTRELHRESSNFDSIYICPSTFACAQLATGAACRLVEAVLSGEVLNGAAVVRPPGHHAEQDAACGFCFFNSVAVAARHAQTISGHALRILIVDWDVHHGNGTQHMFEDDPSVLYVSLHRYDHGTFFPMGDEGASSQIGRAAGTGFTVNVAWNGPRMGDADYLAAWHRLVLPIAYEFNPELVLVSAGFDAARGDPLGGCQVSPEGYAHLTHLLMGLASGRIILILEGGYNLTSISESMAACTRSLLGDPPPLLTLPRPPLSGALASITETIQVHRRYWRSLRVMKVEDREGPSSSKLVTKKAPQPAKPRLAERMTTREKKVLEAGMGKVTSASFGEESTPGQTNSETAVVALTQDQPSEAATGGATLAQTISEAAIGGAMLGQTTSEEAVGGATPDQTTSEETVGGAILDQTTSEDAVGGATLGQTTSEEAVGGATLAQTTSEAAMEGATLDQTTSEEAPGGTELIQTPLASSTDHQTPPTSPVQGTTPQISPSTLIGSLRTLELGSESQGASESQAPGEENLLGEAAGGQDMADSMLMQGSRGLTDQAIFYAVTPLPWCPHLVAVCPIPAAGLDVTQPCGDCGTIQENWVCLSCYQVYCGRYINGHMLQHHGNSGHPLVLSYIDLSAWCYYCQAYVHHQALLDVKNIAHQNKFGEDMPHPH
Briefly: HDAC6 Enzyme Assay. In kind it is biochemical. The note with it: compound concentration 0.37 μM, read-out: Percent Inhibition. The method, boiled down: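 Readout is AMC fluorescence (Ex 340 nm, Em 460 nm) after trypsin cleavage of the deacetylated Ac-Arg-Gly-Lys(Ac)-AMC product. Reaction: purified human HDAC6, compound or vehicle, 1 hour, 30° C, quenched by trichostatin A. Single-concentration percent inhibition or IC50 calculated versus DMSO-treated samples.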
Take `NCCCn1ccc2ccc(C(=O)NO)cc2c1=O` [Compound I-173, 2-(3-aminopropyl)-N-hydroxy-1-oxo-1,2-dihydroisoquinoline-7-carboxamide]: the inhibition at 0.37 µM was 75.4%.

As for `CC(C)C(=O)Nc1cccc(Cn2ccc3ccc(C(=O)NO)cc3c2=O)c1` [Compound I-174, N-hydroxy-2-[3-(isobutyrylamino)benzyl]-1-oxo-1,2-dihydroisoquinoline-7-carboxamide], the inhibition at 0.37 µM was 98.8%.

In the case of `Nc1cccc(-c2cccc(Cn3cnc4ccc(C(=O)NO)cc4c3=O)c2)c1` [Compound I-177, 3-[(3′-aminobiphenyl-3-yl)methyl]-N-hydroxy-4-oxo-3,4-dihydroquinazoline-6-carboxamide], the inhibition at 0.37 µM came out at 93.2%.

`O=C(NO)c1ccc2ccn(-c3cccc(Cl)c3)c(=O)c2c1` [Compound I-179, 2-(3-chlorophenyl)-N-hydroxy-1-oxo-1,2-dihydroisoquinoline-7-carboxamide]: the inhibition at 0.37 µM amounted to 97.5%.

In the case of `O=C(NO)c1ccc2ncn(Cc3cccc(-c4ccc(F)cc4)c3)c(=O)c2c1` [Compound I-181, 3-[(4′-fluorobiphenyl-3-yl)methyl]-N-hydroxy-4-oxo-3,4-dihydroquinazoline-6-carboxamide], the inhibition at 0.37 µM was 92.7%.

Consider `CC(C)c1cccc(-c2cccc(Cn3cnc4ccc(C(=O)NO)cc4c3=O)c2)c1` [Compound I-182, N-hydroxy-3-[(3′-isopropylbiphenyl-3-yl)methyl]-4-oxo-3,4-dihydroquinazoline-6-carboxamide], for which the inhibition at 0.37 µM is 78.9%.

On to `CS(=O)(=O)Nc1cccc(Cn2cnc3ccc(C(=O)NO)cc3c2=O)c1` [Compound I-200, N-hydroxy-3-{3-[(methylsulfonyl)amino]benzyl}-4-oxo-3,4-dihydroquinazoline-6-carboxamide], for which the inhibition at 0.37 µM was 93.3%.

Still in this experiment, the particulars now being: compound concentration 0.412 μM, read-out: Percent Inhibition.
On to `CC(C)n1ccc2ccc(C(=O)NO)cc2c1=O` [Compound I-171, N-hydroxy-2-isopropyl-1-oxo-1,2-dihydroisoquinoline-7-carboxamide], for which the inhibition at 0.412 µM is 87%.

Turning to `O=C(NO)c1ccc2ccn(Cc3ccccc3C(F)(F)F)c(=O)c2c1` [Compound I-172, N-hydroxy-1-oxo-2-[2-(trifluoromethyl)benzyl]-1,2-dihydroisoquinoline-7-carboxamide], the inhibition at 0.412 µM amounted to 94.5%.

For `O=C(NO)c1ccc2ccn(CCOc3ccccc3C(F)(F)F)c(=O)c2c1` [Compound I-175, N-hydroxy-1-oxo-2-{2-[2-(trifluoromethyl)phenoxy]ethyl}-1,2-dihydroisoquinoline-7-carboxamide], the inhibition at 0.412 µM came out at 95.9%.

Turning to `O=C(NO)c1ccc2ccn(CCCOc3cccc(C(F)(F)F)c3)c(=O)c2c1` [Compound I-176, N-hydroxy-1-oxo-2-{3-[3-(trifluoromethyl)phenoxy]propyl}-1,2-dihydroisoquinoline-7-carboxamide], the inhibition at 0.412 µM is 94.2%.

`O=C(NO)c1ccc2ccn(Cc3ccccc3CS(=O)(=O)c3ccccc3)c(=O)c2c1` [Compound I-178, N-hydroxy-1-oxo-2-{2-[(phenylsulfonyl)methyl]benzyl}-1,2-dihydroisoquinoline-7-carboxamide]: the inhibition at 0.412 µM stood at 95%.

Consider `O=C(NO)c1ccc2ncn(CCOc3ccccc3)c(=O)c2c1` [Compound I-180, N-hydroxy-4-oxo-3-(2-phenoxyethyl)-3,4-dihydroquinazoline-6-carboxamide], for which the inhibition at 0.412 µM came out at 97%.

As for `Cc1nc(-c2ccccc2OCCCn2ccc3ccc(C(=O)NO)cc3c2=O)cs1` [Compound I-183, N-hydroxy-2-{3-[2-(2-methyl-1,3-thiazol-4-yl)phenoxy]propyl}-1-oxo-1,2-dihydroisoquinoline-7-carboxamide], the inhibition at 0.412 µM was found to be 67.4%.

`CC(C)(C)OC(=O)N1CCC(Cn2ccc3ccc(C(=O)NO)cc3c2=O)CC1` [Compound I-184, tert-butyl 4-{[7-[(hydroxyamino)carbonyl]-1-oxoisoquinolin-2(1H)-yl]methyl}piperidine-1-carboxylate]: the inhibition at 0.412 µM worked out at 88.9%.

As to `O=C(NO)c1ccc2ncn(Cc3cccc(C(F)(F)F)c3)c(=O)c2c1` [Compound I-185, N-hydroxy-4-oxo-3-[3-(trifluoromethyl)benzyl]-3,4-dihydroquinazoline-6-carboxamide], the inhibition at 0.412 µM came out at 95.5%.

With `CS(=O)(=O)c1ccc(Cn2ccc3ccc(C(=O)NO)cc3c2=O)cc1` [Compound I-186, N-hydroxy-2-[4-(methylsulfonyl)benzyl]-1-oxo-1,2-dihydroisoquinoline-7-carboxamide], the inhibition at 0.412 µM amounted to 95.5%.

As for `O=C(NO)c1ccc2ccn(Cc3c(F)cccc3Cl)c(=O)c2c1` [Compound I-187, 2-(2-chloro-6-fluorobenzyl)-N-hydroxy-1-oxo-1,2-dihydroisoquinoline-7-carboxamide], the inhibition at 0.412 µM was 95.1%.

Take `COc1ccc(N(CCCn2ccc3ccc(C(=O)NO)cc3c2=O)C(=O)OC(C)(C)C)cc1` [Compound I-188, tert-butyl {3-[7-[(hydroxyamino)carbonyl]-1-oxoisoquinolin-2(1H)-yl]propyl}(4-methoxyphenyl)carbamate]: the inhibition at 0.412 µM worked out at 94.4%.

For the compound `O=C(NO)c1ccc2ccn(CCOc3ccc(-c4csnn4)cc3)c(=O)c2c1` [Compound I-189, N-hydroxy-1-oxo-2-{2-[4-(1,2,3-thiadiazol-4-yl)phenoxy]ethyl}-1,2-dihydroisoquinoline-7-carboxamide], the inhibition at 0.412 µM was 97.2%.

With `O=C(NO)c1ccc2ccn(Cc3ccc(OC(F)(F)F)cc3)c(=O)c2c1` [Compound I-190, N-hydroxy-1-oxo-2-[4-(trifluoromethoxy)benzyl]-1,2-dihydroisoquinoline-7-carboxamide], the inhibition at 0.412 µM was found to be 92.9%.

In the case of `O=C(NO)c1ccc2ccn(CCCOc3ccc4c(c3)OCO4)c(=O)c2c1` [Compound I-191, 2-[3-(1,3-benzodioxol-5-yloxy)propyl]-N-hydroxy-1-oxo-1,2-dihydroisoquinoline-7-carboxamide], the inhibition at 0.412 µM is 95.5%.

In the case of `CN(C)c1nc2cc(C(=O)NO)ccc2c(=O)n1-c1ccccc1` [Compound I-192, 2-(dimethylamino)-N-hydroxy-4-oxo-3-phenyl-3,4-dihydroquinazoline-7-carboxamide], the inhibition at 0.412 µM stood at 61.5%.

As for `O=C(NO)c1ccc2ncn(Cc3ccccn3)c(=O)c2c1` [Compound I-193, N-hydroxy-4-oxo-3-(pyridin-2-ylmethyl)-3,4-dihydroquinazoline-6-carboxamide], the inhibition at 0.412 µM is 79.1%.

Regarding `O=C(NO)c1ccc2c(=O)n(Cc3ccccc3)c(=O)[nH]c2c1` [Compound I-194, 3-benzyl-N-hydroxy-2,4-dioxo-1,2,3,4-tetrahydroquinazoline-7-carboxamide], the inhibition at 0.412 µM is 36.1%.

Take `O=C(NO)c1ccc2c(=O)n(-c3ccccc3)c(=O)[nH]c2c1` [Compound I-195, N-hydroxy-2,4-dioxo-3-phenyl-1,2,3,4-tetrahydroquinazoline-7-carboxamide]: the inhibition at 0.412 µM is 16.1%.

`O=C(NO)c1ccc2ccn(CCOc3cccc4c3CCC4)c(=O)c2c1` [Compound I-196, 2-[2-(2,3-dihydro-1H-inden-4-yloxy)ethyl]-N-hydroxy-1-oxo-1,2-dihydroisoquinoline-7-carboxamide]: the inhibition at 0.412 µM was 95.2%.

Consider `Cc1ccc(OCCCn2ccc3ccc(C(=O)NO)cc3c2=O)cc1` [Compound I-197, N-hydroxy-2-[3-(4-methylphenoxy)propyl]-1-oxo-1,2-dihydroisoquinoline-7-carboxamide], for which the inhibition at 0.412 µM stood at 96.5%.

For `O=C(NO)c1ccc2ccn(Cc3cc(F)ccc3F)c(=O)c2c1` [Compound I-198, 2-(2,5-difluorobenzyl)-N-hydroxy-1-oxo-1,2-dihydroisoquinoline-7-carboxamide], the inhibition at 0.412 µM came to 96.4%.

As to `Nc1nc2cc(C(=O)NO)ccc2c(=O)[nH]1` [Compound I-199, 2-amino-N-hydroxy-4-oxo-3,4-dihydroquinazoline-7-carboxamide], the inhibition at 0.412 µM is 42.4%.
